The source made the active and inactive calls.
test system: not listed separately; experiment: cytotoxicity in HPDE-C7 cells, cell-based, fluorescence, HTS (AID 430); type: functional; conditions: Homo sapiens

Compound | EC50
CCCCc1ccc(Nc2nc(O)cc(CCC)n2)cc1 | 10.8 µM (active)
Cc1[nH]c2ccccc2c1C(O)CN1CCN(c2cccc(C(F)(F)F)c2)CC1 (centres undefined) | 7.14 µM (active)
N#C/C(=C\c1ccc[nH]1)Sc1nc2ccccc2s1 | > 20 µM (not active)
COc1cc2c(cc1O)C(SC)=NC(C)(C)C2 | 14.1 µM (active)

test system: not listed separately; experiment: LGR2 antagonists, dose response, cell-based, HEK293, CRE-luciferase reporter, cherry pick, set 2 (AID 743343); type: functional; conditions: not given;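 further: transfected cells were stimulated with diluted bursicon conditioned medium after compound addition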

Compound | AC50
Cc1csc(NC(=O)c2cnc3ccccc3n2)n1 | 7.51 µM (active)

test system: not listed separately; experiment: MC4R antagonists, dose response, counter-screen for LGR2 antagonist project, cell-based, plate reader, cherry pick (AID 743444); type: functional; conditions: not given;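 further: transfected HEK 293 cells stimulated with alpha-MSH peptide; potency of inhibitors of the alpha-MSH evoked signal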

Compound | AC50
Cc1csc(NC(=O)c2cnc3ccccc3n2)n1 | 16.9 µM (active)

molecular target: T1, Microphthalmia-associated transcription factor (Homo sapiens, UniProt O75030); experiment: TRPM1 promoter luciferase signal decrease, dose response, MITF inhibitor project, cell-based, SK-MEL-5, cherry-picked, set 3 (AID 493073); type: functional; conditions: not given
T1 sequence (O75030 whole entry): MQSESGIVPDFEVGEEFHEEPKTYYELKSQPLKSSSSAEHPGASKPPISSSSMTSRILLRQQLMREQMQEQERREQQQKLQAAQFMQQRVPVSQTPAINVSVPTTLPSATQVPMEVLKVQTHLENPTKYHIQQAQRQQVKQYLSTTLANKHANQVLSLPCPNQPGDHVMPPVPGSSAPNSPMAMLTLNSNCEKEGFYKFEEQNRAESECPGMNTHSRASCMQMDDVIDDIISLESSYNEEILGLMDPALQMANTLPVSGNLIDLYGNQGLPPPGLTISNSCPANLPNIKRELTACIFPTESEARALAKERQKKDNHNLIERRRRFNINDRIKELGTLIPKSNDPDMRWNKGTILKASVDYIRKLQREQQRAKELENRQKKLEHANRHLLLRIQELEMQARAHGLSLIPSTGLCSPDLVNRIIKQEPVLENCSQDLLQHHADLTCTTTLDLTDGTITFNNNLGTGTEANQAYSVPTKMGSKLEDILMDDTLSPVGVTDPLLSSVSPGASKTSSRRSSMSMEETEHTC

Compound | AC50
COc1cc2c(cc1O)C(SC)=NC(C)(C)C2 | 11.3 µM (active)

test system: not listed separately; experiment: cytotoxicity in KRAS-transformed pancreatic duct cells, primary screen, cell-based, fluorescence, HTS (AID 431); type: functional; conditions: Homo sapiens;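 further: cell line used: HPDE-C7K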

Compound | EC50
CCCCc1ccc(Nc2nc(O)cc(CCC)n2)cc1 | 6.75 µM (active)
Cc1[nH]c2ccccc2c1C(O)CN1CCN(c2cccc(C(F)(F)F)c2)CC1 (centres undefined) | 6.67 µM (active)
N#C/C(=C\c1ccc[nH]1)Sc1nc2ccccc2s1 | > 20 µM (not active)
COc1cc2c(cc1O)C(SC)=NC(C)(C)C2 | 13.6 µM (active)

test system: not listed separately; experiment: Luminescence Cell-Based Dose Retest to Confirm Inhibitors of Cancer Stem Cells. [Related pubchem assays (depositor defined):AID2717, AID2721]; type: functional; conditions: Homo sapiens

Compound | AC50
Cc1nn(Cc2ccc(C(=O)Nc3nccs3)cc2)c(C)c1Cl | 0.747 µM (active)

molecular target: Prothrombin (Homo sapiens, UniProt P00734); experiment: Thrombin 1536 HTS Dose Response Confirmation. [Related pubchem assays: 1046 (Thrombin 1536 HTS; hits were confirmed in this assay)]; type: functional; conditions: not given

Compound | IC50
CC(Sc1nncn1C)C(=O)NCc1ccc2c(c1)OCO2 (centres undefined) | > 50 µM (not active)
Cc1c(N(C)C(=O)C2CCCN2S(=O)(=O)c2ccccc2)c(=O)n(-c2ccccc2)n1C (centres undefined) | > 50 µM (not active)
Cc1nn(Cc2ccc(C(=O)Nc3nccs3)cc2)c(C)c1Cl | > 50 µM (not active)
Nc1cccc2c1C(=O)N(C(=O)c1ccco1)C2=O | 8.62 µM (active)
CC1=C(C#N)C(=O)N(C)C(=O)/C1=N/Nc1ccc(S(N)(=O)=O)cc1 | > 50 µM (not active)
COc1ccc(C(=O)n2nc(-c3ccco3)nc2N)cc1OC | 2.23 µM (active)

test system: not listed separately; experiment: HepG2 cell cytotoxicity, dose response, cytotoxicity control, plate reader, cherry-pick, antagonist series (AID 743416); type: functional, cell-based; conditions: not given

Compound | AC50
Cc1csc(NC(=O)c2cnc3ccccc3n2)n1 | > 52 µM (inactive)
